Laboratory results from US10413581B2, “Combination, composition, and method of administering the combination or composition to animals” (Phibro Animal Health Corporation, priority 2014, dated 2019).

Assays:
[1] = test system: E. acervulina; test: Example 5: birds infected with E. acervulina field isolate; performance, lesion score, OPG; type: in vivo
Experimental: In this particular embodiment, the effects of the composition and Salinomycin, independently, were evaluated. Lower amounts of the composition were tested, including the amount that is typically used by those in the art (i.e., 125 ppm). Salinomycin treatments used 44 ppm or 66 ppm Salinomycin. Non-infected birds that received no medication were used as a control (entry 1 of Table 2, below). Also, some birds were administered 66 ppm of Salinomycin, but where not infected (entry 7 of Table 2, below). The remaining birds were infected with 200,000 oocysts of field isolate of E. acervulina, which is a species of Eimeria that causes coccidiosis in poultry, particularly […] poultry, and subjected to the treatments described below in entries 2-6 of Table 2.

[2] = test system: E. maxima; test: Example 5: birds infected with E. maxima field isolate; performance, lesion score, OPG; type: in vivo
Text: Similar protocols were used to determine the effects of lower amounts of NFP (e.g., 100 ppm, 125 ppm, and 150 ppm) on birds infected with E. maxima, a common form of Eimeria found in commercial broilers. Infected birds were infected with 37,500 oocysts of field isolate of E. maxima. The infected birds were subjected to the treatments described below in entries 2-6 of Table 3.

[3] = test system: ionophore tolerant coccidia; test: Example 8 floor pen study, ionophore tolerant coccidia in the litter: performance, mortality, total lesion score, total OPG; type: in vivo, Cobb 500 male chicks
Text: In the embodiments described below in Examples 6-8, the following conditions and methods were utilized. The test house was divided into pens of equal size, arranged along a central aisle. Subtracting out for equipment, the initial bird density was ˜0.84 square ft/bird. Each pen had 5 feet high side walls with bottom 1½ feet being of solid wood to prevent bird migration. All flooring of each pen had approximately 4 inches of built-up litter.
The temperature of the building was monitored. Environmental conditions during the trial (temperature) were appropriate (optimum) to the age of the animals Illumination was provided by fluorescent bulbs placed above the pens. The lighting scheme was 24 hours of light per day.
The diets were provided ad libitum in one tube-type feeder per pen. From day 1 until day 7, feed will also be supplied on a tray placed directly on the litter of each pen.
Standard floor pen management practices were used throughout the experiment. Animals and housing facilities were inspected twice daily, observing and recording the general health status, constant feed and water supply as well as temperature, removing all dead birds, and recognizing unexpected events.
All feeds were fed as crumbles/pellets. Quantities of all basal feed and test articles used to prepare treatment batches were documented. Each batch of feed was mixed and bagged separately. Each bag was identified with the study number, date of mix, type of feed, and the correct treatment number. Complete records of feed mixing, and test article inventories were maintained. A sample from the beginning, middle, and end of each treatment feed were mixed to form a composite sample. This sample of each treatment was retained until study end. All feed was weighed by pen. Starter feed was fed from Day 0 to 18. On Day 18, non-consumed starter was weighed and discarded. Grower feed was issued and fed until Day 28. On Day 28, non-consumed grower was weighed and discarded. Finisher feed was issued and fed until Day 42. On Day 42, non-consumed finisher was weighed and discarded.
Day of hatch male chicks were obtained from Cobb-Vantress hatchery, Cleveland, Ga. The strain was Cobb 500. Breeder flock was recorded. 1760 chicks were allocated to the study. At the hatchery, the birds received routine vaccinations. The birds were sexed at the hatchery. In Example 7, all chicks were spray vaccinated with conventional doses of Coccivac-B. Only healthy appearing chicks were used in the study. In examples 6 and 7, fifty-five males were allocated to each treatment pen by blocks. In example 8, fifty-two males were allocated to each treatment pen by blocks. No birds were replaced during the course of the study. Number and disposition of all birds not used for allocation were documented. Bird weights (kg) by pen were recorded at study initiation, Day 18, 28, and termination (Day 42).
(§1) On Days 18, 28, and 35, three birds per pen were sacrificed and coccidial lesion scored for degree of E. acervulina, E. maxima and E. tenella infection (Examples 6 and 7). The system of Johnson and Reid (1970) wherein 0 is normal and 1, 2, 3, or 4 indicate increasing severity of infection were used for lesion scoring. In Example 8, three birds per pen were sacrificed on days […] and coccidial lesion scored for degree of E. acervulina, E. maxima and E. tenella infection. The system of Johnson and Reid (1970) wherein 0 is normal and 1, 2, 3, or 4 indicate increasing severity of infection were used for lesion scoring.
On Days 18 and 28 fresh fecal samples were collected from each pen (Examples 6 and 7). […] These representative samples were tested to determine the degree of oocysts shedding/cycling. Oocysts per gram were determined for each sample.
In this example, the ability of exemplary compositions to improve bird performance under challenge conditions was determined. […]

[4] = test system: E. maxima; test: Example 8: lesion score and OPG, E. maxima; type: in vivo, Cobb 500 male chicks; conditions: Composition 250 ppm, Salinomycin 66 ppm, alone or combined
Text: as §1
(§2) On Days 18 and 28 fresh fecal samples were collected from each pen (Examples 6 and 7). On Days 18 and 28, fresh fecal samples were collected from each pen (Example 8). These representative samples were tested to determine the degree of oocysts shedding/cycling. Oocysts per gram were determined for each sample.
(§3) In this example, the ability of exemplary compositions to improve bird performance under challenge conditions was determined. In some embodiments, an exemplary composition was administered alone and in other embodiments, it was administered in combination with Salinomycin. In some embodiments, the birds were not fed any additives (that is, neither the composition nor Salinomycin) and in other embodiments the birds were solely fed Salinomycin. The birds used in this example were exposed to ionophore tolerant coccidia in the litter of all pens, beginning from day of age. […] The results from this example further illustrate that the disclosed compositions and combinations are effective to better control coccidia that are partially resistant to ionophores.

[5] = test system: E. tenella; test: Example 8: lesion score and OPG, E. tenella; type: in vivo, Cobb 500 male chicks; conditions: Composition 250 ppm, Salinomycin 66 ppm, alone or combined
Text: as §1, §2, §3

[6] = 44 ppm, birds infected with 200,000 oocysts of E. acervulina
[7] = 66 ppm, entry 7 of Table 2 (not infected)
[8] = 44 ppm, birds infected with 37,500 oocysts of E. maxima
[9] = 66 ppm, entry 7 of Table 3 (entries 2-6 infected)
[10] = Day 18, Composition 250 ppm, Salinomycin 66 ppm, alone or combined
[11] = Day 28, Composition 250 ppm, Salinomycin 66 ppm, alone or combined
[12] = Day 42, Composition 250 ppm, Salinomycin 66 ppm, alone or combined

CC[C@@H](C(=O)[C@@H](C)[C@@H](O)[C@H](C)[C@@H]1O[C@@H]([C@@H](CC)C(=O)O)CC[C@@H]1C)[C@H]1O[C@]2(C=C[C@@H](O)[C@]3(CC[C@@](C)([C@H]4CC[C@](O)(CC)[C@H](C)O4)O3)O2)[C@H](C)C[C@@H]1C [Salinomycin]
Adj. Fd. Conv. [1, 6]: 1.946 b | Avg. Wt. Gain [1, 6]: 0.241 ab | Feed Consum. [1, 6]: 2.804 a | Lesion Score [1, 6]: 1.3 c | OPG [1, 6]: 2734 oocysts per gram of fecal material | Adj. Fd. Conv. [1, 7]: 1.948 b | Avg. Wt. Gain [1, 7]: 0.231 b | Feed Consum. [1, 7]: 2.692 ab | Lesion Score [1, 7]: 1.4 c | OPG [1, 7]: 217 oocysts per gram of fecal material | Adj. Fd. Conv. [2, 8]: 2.021 b | Avg. Wt. Gain [2, 8]: 0.225 b | Feed Consum. [2, 8]: 2.718 ab | Lesion Score [2, 8]: 1.3 cd | OPG [2, 8]: 4435 oocysts per gram of fecal material | Adj. Fd. Conv. [2, 9]: 1.960 b | Avg. Wt. Gain [2, 9]: 0.230 b | Feed Consum. [2, 9]: 2.647 bc | Lesion Score [2, 9]: 1.2 days | OPG [2, 9]: 167 oocysts per gram of fecal material | Adj. FCR [3, 10]: 1.420ab | Feed Intake [3, 10]: 24.76a | Lesion Scores Total [3, 10]: 0.8b | Wt. Gain [3, 10]: 0.294a kg | OPG Total ([3]; Day 21, Composition 250 ppm, Salinomycin 66 ppm, alone or combined): 10352b oocysts per gram | Adj. FCR [3, 11]: 1.619b | Feed Intake [3, 11]: 74.09a | Lesion Scores Total [3, 11]: 0.6b | OPG Total [3, 11]: 7839b oocysts per gram | Wt. Gain [3, 11]: 0.875a kg | Adj. FCR [3, 12]: 1.773bc | Feed Intake [3, 12]: 175.68a | Mortality [3, 12]: 6.5a | Wt. Gain [3, 12]: 2.114a kg | performance ([3]; day 18, Salinomycin alone): did not improve performance | Lesion Scores E.M. ([4]; Day 18): 0.7a | OPG E.M. ([4]; Day 21): 1910bc oocysts per gram | Lesion Scores E.M. ([4]; Day 28): 0.5b | OPG E.M. ([4]; Day 28): 955b oocysts per gram | Lesion Scores E.T. ([5]; Day 18): 0.5b | OPG E.T. ([5]; Day 21): 5528a oocysts per gram | Lesion Scores E.T. ([5]; Day 28): 0.1b | OPG E.T. ([5]; Day 28): 3065ab oocysts per gram
